Data from US20080200454A1, “CARBON-LINKED TETRAHYDRO-PYRAZOLO-PYRIDINE MODULATORS OF CATHEPSIN S” (priority 2007, published 2008).
Where two headings read alike, the source gives them in different places.

Target: Recombinant human cathepsin S (CatS) (Homo sapiens, UniProt P25774)
Experiment: Recombinant human cathepsin S (CatS) inhibition assay, fluorogenic substrate Z-Valine-Valine-Arginine-AMC;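 also: Baculovirus-expressed CatS in pH 5.0 sodium acetate buffer with DTT and NaCl, fluorescence read each minute over 20 min, inhibition derived from rate slope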

Recombinant human cathepsin S (CatS), sequence (P25774 115-331): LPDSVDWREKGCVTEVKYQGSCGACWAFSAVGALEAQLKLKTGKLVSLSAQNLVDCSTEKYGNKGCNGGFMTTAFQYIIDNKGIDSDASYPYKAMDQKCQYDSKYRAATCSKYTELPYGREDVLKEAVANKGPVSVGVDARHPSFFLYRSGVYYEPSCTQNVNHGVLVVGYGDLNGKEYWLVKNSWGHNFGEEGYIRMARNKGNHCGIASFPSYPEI

| SMILES | IC50 | IC50 (CatS IC50) |
| --- | --- | --- |
| COC(=O)C1NCCc2cc(C#Cc3cc(-c4nn(CCCN5CCOCC5)c5c4CN(S(C)(=O)=O)CC5)ccc3Cl)ccc21 (stereo not shown) [Example 208, Methyl 6-({2-chloro-5-[5-(methylsulfonyl)-1-(3-morpholin-4-ylpropyl)-4,5,6,7-tetrahydro-1H-pyrazolo[4,3-c]pyridin-3-yl]phenyl}ethynyl)-1,2,3,4-tetrahydroisoquinoline-1-carboxylate] | 3130 nM | – |
| CS(=O)(=O)N1CCc2c(c(-c3ccc(Cl)c(C#Cc4ccc(CN[C@@H](CO)c5ccccc5)cc4)c3)nn2CCCN2CCOCC2)C1 [Example 209, (2R)-2-({[4-({2-Chloro-5-[5-(methylsulfonyl)-1-(3-morpholin-4-ylpropyl)-4,5,6,7-tetrahydro-1H-pyrazolo[4,3-c]pyridin-3-yl]phenyl}ethynyl)phenyl]methyl}amino)-2-phenylethanol] | – | 100 nM |
| COC(=O)[C@H](NCc1ccc(C#Cc2cc(-c3nn(CCCN4CCOCC4)c4c3CN(S(C)(=O)=O)CC4)ccc2Cl)cc1)c1ccccc1 [Example 211, Methyl (2R)-({[4-({2-chloro-5-[5-(methylsulfonyl)-1-(3-morpholin-4-ylpropyl)-4,5,6,7-tetrahydro-1H-pyrazolo[4,3-c]pyridin-3-yl]phenyl}ethynyl)phenyl]methyl}amino)(phenyl)ethanoate] | 110 nM | – |
| CS(=O)(=O)N1CCc2c(c(-c3ccc(Cl)c(C#Cc4ccc(CNCc5ccc(Cl)c(Cl)c5)cc4)c3)nn2CCCN2CCOCC2)C1 [Example 212, 1-[4-({2-Chloro-5-[5-(methylsulfonyl)-1-(3-morpholin-4-ylpropyl)-4,5,6,7-tetrahydro-1H-pyrazolo[4,3-c]pyridin-3-yl]phenyl}ethynyl)phenyl]-N-[(3,4-dichlorophenyl)methyl]methanamine] | 80 nM | – |
| CS(=O)(=O)N1CCc2c(c(-c3ccc(Cl)c(C#Cc4ccc(CN[C@@H]5Cc6ccccc6[C@@H]5O)cc4)c3)nn2CCCN2CCN(c3ccccn3)CC2)C1 [Example 213, (1S,2R)-2-[({4-[(2-Chloro-5-{5-(methylsulfonyl)-1-[3-(4-pyridin-2-ylpiperazin-1-yl)propyl]-4,5,6,7-tetrahydro-1H-pyrazolo[4,3-c]pyridin-3-yl}phenyl)ethynyl]phenyl}methyl)amino]-2,3-dihydro-1H-inden-1-ol] | – | 20 nM |
| CS(=O)(=O)N1CCc2c(c(-c3ccc(Cl)c(C#Cc4ccc(CN[C@H]5CCCc6ccccc65)cc4)c3)nn2CCCN2CCN(c3ccccn3)CC2)C1 [Example 216, (1S)—N-({4-[(2-Chloro-5-{5-(methylsulfonyl)-1-[3-(4-pyridin-2-ylpiperazin-1-yl)propyl]-4,5,6,7-tetrahydro-1H-pyrazolo[4,3-c]pyridin-3-yl}phenyl)ethynyl]phenyl}methyl)-1,2,3,4-tetrahydronaphthalen-1-amine] | – | 70 nM |
| CS(=O)(=O)N1CCc2c(c(-c3ccc(Cl)c(C#Cc4ccc(CN[C@H](CO)c5ccccc5)cc4)c3)nn2CCCN2CCN(c3ccccn3)CC2)C1 [Example 218, (2S)-2-[({4-[(2-Chloro-5-{5-(methylsulfonyl)-1-[3-(4-pyridin-2-ylpiperazin-1-yl)propyl]-4,5,6,7-tetrahydro-1H-pyrazolo[4,3-c]pyridin-3-yl}phenyl)ethynyl]phenyl}methyl)amino]-2-phenylethanol] | 30 nM | – |
| CC(NCc1ccc(C#Cc2cc(-c3nn(CCCN4CCN(c5ccccn5)CC4)c4c3CN(S(C)(=O)=O)CC4)ccc2Cl)cc1)c1ccccc1 (stereo not shown) [Example 219, N-({4-[(2-Chloro-5-{5-(methylsulfonyl)-1-[3-(4-pyridin-2-ylpiperazin-1-yl)propyl]-4,5,6,7-tetrahydro-1H-pyrazolo[4,3-c]pyridin-3-yl}phenyl)ethynyl]phenyl}methyl)-1-phenylethanamine] | 40 nM | – |
| C[C@@H]1COCCN1CCCn1nc(-c2ccc(Cl)c(C#Cc3ccc(Cl)c(CNCCCO)c3)c2)c2c1CCN(C(N)=O)C2 [Example 222, 3-(4-Chloro-3-{4-chloro-3-[(3-hydroxy-propylamino)-methyl]-phenylethynyl}-phenyl)-1-[3-(3-methyl-morpholin-4-yl)-propyl]-1,4,6,7-tetrahydro-pyrazolo[4,3-c]pyridine-5-carboxylic acid amide] | – | 20 nM |
| CS(=O)(=O)N1CCc2c(c(-c3ccc(Cl)c(C#Cc4ccc5c(c4)CNCC5)c3)nn2CCCN2CCN(c3ccccc3)CC2)C1 [Example 225, 7-[(2-Chloro-5-{5-(methylsulfonyl)-1-[3-(4-phenylpiperazin-1-yl)propyl]-4,5,6,7-tetrahydro-1H-pyrazolo[4,3-c]pyridin-3-yl}phenyl)ethynyl]-1,2,3,4-tetrahydroisoquinoline] | 10 nM | – |
| CN1CCc2ccc(C#Cc3cc(-c4nn(CCCN5CCN(c6ccccc6)CC5)c5c4CN(S(C)(=O)=O)CC5)ccc3Cl)cc2C1 [Example 226, 7-[(2-Chloro-5-{5-(methylsulfonyl)-1-[3-(4-phenylpiperazin-1-yl)propyl]-4,5,6,7-tetrahydro-1H-pyrazolo[4,3-c]pyridin-3-yl}phenyl)ethynyl]-2-methyl-1,2,3,4-tetrahydroisoquinoline] | 30 nM | – |
| CC(=O)NC1CCN(CCCn2nc(-c3ccc(Cl)c(C#Cc4ccc5c(c4)CNCC5)c3)c3c2CCN(S(C)(=O)=O)C3)CC1 [Example 227, N-[1-(3-{3-[4-Chloro-3-(1,2,3,4-tetrahydroisoquinolin-7-ylethynyl)phenyl]-5-(methylsulfonyl)-4,5,6,7-tetrahydro-1H-pyrazolo[4,3-c]pyridin-1-yl}propyl)piperidin-4-yl]acetamide] | – | 40 nM |
| CS(=O)(=O)N1CCc2c(c(-c3ccc(Cl)c(CCc4ccc5c(c4)CNCC5)c3)nn2CCCN2CCCCC2)C1 [Example 228, 7-(2-{2-Chloro-5-[5-(methylsulfonyl)-1-(3-piperidin-1-ylpropyl)-4,5,6,7-tetrahydro-1H-pyrazolo[4,3-c]pyridin-3-yl]phenyl}ethyl)-1,2,3,4-tetrahydroisoquinoline] | 90 nM | – |
| CS(=O)(=O)N1CCc2c(c(-c3ccc(Cl)c(CCc4ccc5c(c4)CNCC5)c3)nn2CCCN2CCN(C3CC3)CC2)C1 [Example 229, 7-[2-(2-Chloro-5-{1-[3-(4-cyclopropylpiperazin-1-yl)propyl]-5-(methylsulfonyl)-4,5,6,7-tetrahydro-1H-pyrazolo[4,3-c]pyridin-3-yl}phenyl)ethyl]-1,2,3,4-tetrahydroisoquinoline] | – | 90 nM |
| CC(C)(C)OC(=O)N1CCC(C2CCN(C[C@H](O)Cn3nc(-c4ccc(Cl)c(C#Cc5ccc(Cl)cc5)c4)c4c3CCN(S(C)(=O)=O)C4)CC2)CC1 [Example 230, 1,1-Dimethylethyl 1′-{(2S)-3-[3-{4-chloro-3-[(4-chlorophenyl)ethynyl]phenyl}-5-(methylsulfonyl)-4,5,6,7-tetrahydro-1H-pyrazolo[4,3-c]pyridin-1-yl]-2-hydroxypropyl}-4,4′-bipiperidine-1-carboxylate] | 10 nM | – |
| CC(C)CC#Cc1cc(-c2nn(C[C@@H](O)CN3CCC(C4CCN(C(=O)OC(C)(C)C)CC4)CC3)c3c2CN(S(C)(=O)=O)CC3)ccc1Cl [Example 231, 1,1-Dimethylethyl 1′-[(2S)-3-{3-[4-chloro-3-(4-methylpent-1-yn-1-yl)phenyl]-5-(methylsulfonyl)-4,5,6,7-tetrahydro-1H-pyrazolo[4,3-c]pyridin-1-yl}-2-hydroxypropyl]-4,4′-bipiperidine-1-carboxylate] | 2690 nM | – |
| CC(C)(C)OC(=O)N1CCC(C2CCN(C[C@H](O)Cn3nc(-c4ccc(Cl)c(C#CCc5ccccc5)c4)c4c3CCN(S(C)(=O)=O)C4)CC2)CC1 [Example 232, 1,1-Dimethylethyl 1′-[(2S)-3-{3-[4-chloro-3-(3-phenylprop-1-yn-1-yl)phenyl]-5-(methylsulfonyl)-4,5,6,7-tetrahydro-1H-pyrazolo[4,3-c]pyridin-1-yl}-2-hydroxypropyl]-4,4′-bipiperidine-1-carboxylate] | – | 1530 nM |
| CC(C)(C)OC(=O)N1CCC(C2CCN(C[C@H](O)Cn3nc(-c4ccc(Cl)c(C#CC5CCCCC5)c4)c4c3CCN(S(C)(=O)=O)C4)CC2)CC1 [Example 233, 1,1-Dimethylethyl 1′-[(2S)-3-{3-[4-chloro-3-(cyclohexylethynyl)phenyl]-5-(methylsulfonyl)-4,5,6,7-tetrahydro-1H-pyrazolo[4,3-c]pyridin-1-yl}-2-hydroxypropyl]-4,4′-bipiperidine-1-carboxylate] | 7920 nM | – |
| CC(C)(C)OC(=O)N1CCC(C2CCN(C[C@H](O)Cn3nc(-c4ccc(Cl)c(C#Cc5ccccn5)c4)c4c3CCN(S(C)(=O)=O)C4)CC2)CC1 [Example 234, 1,1-Dimethylethyl 1′-[(2S)-3-{3-[4-chloro-3-(pyridin-2-ylethynyl)phenyl]-5-(methylsulfonyl)-4,5,6,7-tetrahydro-1H-pyrazolo[4,3-c]pyridin-1-yl}-2-hydroxypropyl]-4,4′-bipiperidine-1-carboxylate] | – | 280 nM |
| CC(C)(C)OC(=O)N1CCC(C2CCN(C[C@H](O)Cn3nc(-c4ccc(Cl)c(C#Cc5cccnc5)c4)c4c3CCN(S(C)(=O)=O)C4)CC2)CC1 [Example 235, 1,1-Dimethylethyl 1′-[(2S)-3-{3-[4-chloro-3-(pyridin-3-ylethynyl)phenyl]-5-(methylsulfonyl)-4,5,6,7-tetrahydro-1H-pyrazolo[4,3-c]pyridin-1-yl}-2-hydroxypropyl]-4,4′-bipiperidine-1-carboxylate] | – | 330 nM |
| CCN(CC)CC#Cc1cc(-c2nn(C[C@@H](O)CN3CCC(C4CCN(C(=O)OC(C)(C)C)CC4)CC3)c3c2CN(S(C)(=O)=O)CC3)ccc1Cl [Example 236, 1,1-Dimethylethyl 1′-{(2S)-3-[3-{4-chloro-3-[3-(diethylamino)prop-1-yn-1-yl]phenyl}-5-(methylsulfonyl)-4,5,6,7-tetrahydro-1H-pyrazolo[4,3-c]pyridin-1-yl]-2-hydroxypropyl}-4,4′-bipiperidine-1-carboxylate] | 7130 nM | – |
| CC(C)(C)OC(=O)N1CCC(C2CCN(C[C@H](O)Cn3nc(-c4ccc(Cl)c(C#Cc5ccc(Cl)cc5)c4)c4c3CCN(C(N)=O)C4)CC2)CC1 [Example 237, 1,1-Dimethylethyl 1′-{(2S)-3-[5-(aminocarbonyl)-3-{4-chloro-3-[(4-chlorophenyl)ethynyl]phenyl}-4,5,6,7-tetrahydro-1H-pyrazolo[4,3-c]pyridin-1-yl]-2-hydroxypropyl}-4,4′-bipiperidine-1-carboxylate] | 10 nM | – |
